Results as given in patent US8735414B2 (priority 2009, dated 2014).

Legend:
[1] = test system: bicistronic HCV replicon (replicon RNA, GenBank Accession No. AJ242654); test: HCV Replicon Assay; assay type: cell-based; details: Hepatitis C virus, 72 h, read-out: Replicon IC50

Compound | IC50 [1] | melting point
Cc1cc2c(cc1F)c(C(N)=O)c(-c1ccc(S(=O)(=O)N[C@@H](C)C(F)(F)F)cn1)n2-c1ccc(F)cn1 [compound 876, 5-fluoro-1-(5-fluoropyridin-2-yl)-6-methyl-2-(5-{[(2S)-1,1,1-trifluoropropan-2-yl]sulfamoyl}pyridin-2-yl)-1H-indole-3-carboxamide] | < 500 nM | 224 to 228 °C
CCc1cc2c(cc1F)c(C(N)=O)c(-c1ccc(S(=O)(=O)N[C@@H](C)C(F)(F)F)cn1)n2-c1cccnn1 [compound 1046, 6-ethyl-5-fluoro-1-(pyridazin-3-yl)-2-(5-{[(2S)-1,1,1-trifluoropropan-2-yl]sulfamoyl}pyridin-2-yl)-1H-indole-3-carboxamide] | 2000 to 5000 nM | 206 to 212 °C
N#Cc1c(-c2ccc(S(=O)(=O)NC(CF)CF)cn2)n(C2CCC2)c2cc(Cl)c(F)cc12 [compound 50, 6-(6-chloro-3-cyano-1-cyclobutyl-5-fluoro-1H-indol-2-yl)-N-(1,3-difluoropropan-2-yl)pyridine-3-sulfonamide] | < 500 nM | 211 to 213 °C
N#Cc1c(-c2ccc(S(=O)(=O)NC(CF)CF)cn2)n(C2CCC2)c2cc(N3CCOCC3)ccc12 [compound 322, 6-[3-cyano-1-cyclobutyl-6-(morpholin-4-yl)-1H-indol-2-yl]-N-(1,3-difluoropropan-2-yl)pyridine-3-sulfonamide] | 2000 to 5000 nM | 241 to 242 °C
CCc1cc2c(cc1F)c(C(N)=O)c(-c1ccc(S(=O)(=O)NC(C)(C)C(F)(F)F)cn1)n2-c1ncccn1 [compound 978, 6-ethyl-5-fluoro-1-(pyrimidin-2-yl)-2-{5-[(1,1,1-trifluoro-2-methylpropan-2-yl)sulfamoyl]pyridin-2-yl}-1H-indole-3-carboxamide] | 2000 to 5000 nM | 261 to 269 °C
N#Cc1c(-c2ccc(S(=O)(=O)NC3(C(F)(F)F)CC3)cn2)n(C2CCCC2)c2ccc(F)cc12 [compound 327, 6-(3-cyano-1-cyclopentyl-5-fluoro-1H-indol-2-yl)-N-[1-(trifluoromethyl)cyclopropyl]pyridine-3-sulfonamide] | < 500 nM | 202 to 206 °C
CCc1cc2c(cc1F)c(C#N)c(-c1ccc(S(=O)(=O)N[C@@H](C)C(F)(F)F)cn1)n2-c1ccc(F)c(F)c1 [compound 1061, 6-[3-cyano-1-(3,4-difluorophenyl)-6-ethyl-5-fluoro-1H-indol-2-yl]-N-[(2S)-1,1,1-trifluoropropan-2-yl]pyridine-3-sulfonamide] | < 500 nM | 229 to 235 °C
Cc1cc2c(cc1O)c(C(N)=O)c(-c1ccc(S(=O)(=O)NC(C)(C)C)cn1)n2C1CCC1 [compound 828, 2-[5-(tert-butylsulfamoyl)pyridin-2-yl]-1-cyclobutyl-5-hydroxy-6-methyl-1H-indole-3-carboxamide] | 2000 to 5000 nM | 292 to 293 °C
Cc1cc2c(cc1Cl)c(C(N)=O)c(-c1ccc(S(=O)(=O)N[C@@H](C)C(F)(F)F)cn1)n2C1CCC1 [compound 734, 5-chloro-1-cyclobutyl-6-methyl-2-(5-{[(2S)-1,1,1-trifluoropropan-2-yl]sulfamoyl}pyridin-2-yl)-1H-indole-3-carboxamide] | < 500 nM | 207 to 209 °C
COc1ccc2c(C#N)c(-c3ccc(S(=O)(=O)NC(CF)CF)cn3)n(C3CCC3)c2c1 [compound 229, 6-(3-cyano-1-cyclobutyl-6-methoxy-1H-indol-2-yl)-N-(1,3-difluoropropan-2-yl)pyridine-3-sulfonamide] | < 500 nM | 174 to 177 °C
CCS(=O)(=O)Nc1ccc(-c2c(C#N)c3ccc(OC(C)C)cc3n2CC2CC2)nc1 [compound 279, N-{6-[3-cyano-1-(cyclopropylmethyl)-6-(propan-2-yloxy)-1H-indol-2-yl]pyridin-3-yl}ethanesulfonamide] | 500 to 2000 nM | 149 to 154 °C
Cc1cc2c(cc1F)c(C#N)c(-c1ccc(S(=O)(=O)N[C@@H](C)C(F)(F)F)cn1)n2-c1cccc(Cl)n1 [compound 962, 6-[1-(6-chloropyridin-2-yl)-3-cyano-5-fluoro-6-methyl-1H-indol-2-yl]-N-[(2S)-1,1,1-trifluoropropan-2-yl]pyridine-3-sulfonamide] | < 500 nM | 253 to 257 °C
Cc1cc2c(cc1Br)c(C#N)c(-c1ccc(S(=O)(=O)N[C@H](C)C(F)(F)F)cn1)n2C1CCCC1 [compound 692, 6-(5-bromo-3-cyano-1-cyclopentyl-6-methyl-1H-indol-2-yl)-N-[(2R)-1,1,1-trifluoropropan-2-yl]pyridine-3-sulfonamide] | < 500 nM | 226.5 to 227 °C
CC(C)n1c(-c2ccc(S(=O)(=O)N[C@@H](C)C3CC3)cn2)c(C#N)c2ccc(OC(F)(F)F)cc21 [compound 308, 6-[3-cyano-1-(propan-2-yl)-6-(trifluoromethoxy)-1H-indol-2-yl]-N-[(1S)-1-cyclopropylethyl]pyridine-3-sulfonamide] | 500 to 2000 nM | 144 to 145 °C
Cc1cc2c(cc1F)c(C(N)=O)c(-c1ccc(S(=O)(=O)NC3(C(F)(F)F)CC3)cn1)n2C1CCCCC1 [compound 857, 1-cyclohexyl-5-fluoro-6-methyl-2-(5-{[1-(trifluoromethyl)cyclopropyl]sulfamoyl}pyridin-2-yl)-1H-indole-3-carboxamide] | < 500 nM | 273 to 274 °C
Cc1cc2c(cc1F)c(C(=O)O)c(-c1ccc(S(=O)(=O)NC(C)(C)C)cn1)n2C1CCCC1 [compound 766, 2-[5-(tert-butylsulfamoyl)pyridin-2-yl]-1-cyclopentyl-5-fluoro-6-methyl-1H-indole-3-carboxylic acid] | < 500 nM | 238 to 240 °C
Cc1cc2c(cc1F)c(C#N)c(-c1ccc(S(=O)(=O)N[C@@H](C)C(F)(F)F)cn1)n2-c1nncs1 [compound 977, 6-[3-cyano-5-fluoro-6-methyl-1-(1,3,4-thiadiazol-2-yl)-1H-indol-2-yl]-N-[(2S)-1,1,1-trifluoropropan-2-yl]pyridine-3-sulfonamide] | < 500 nM | 232 to 240 °C
CC(C)n1c(-c2ccc(S(=O)(=O)N[C@H](C)C(F)(F)F)cn2)c(C#N)c2ccc(OC(F)F)cc21 [compound 194, 6-[3-cyano-6-(difluoromethoxy)-1-(propan-2-yl)-1H-indol-2-yl]-N-[(2R)-1,1,1-trifluoropropan-2-yl]pyridine-3-sulfonamide] | < 500 nM | 166 to 168 °C
C[C@@H](NS(=O)(=O)c1ccc(-c2c(C#N)c3cc(F)c(C4CC4)cc3n2C2CCC2)nc1)C(F)(F)F [compound 631, 6-(3-cyano-1-cyclobutyl-6-cyclopropyl-5-fluoro-1H-indol-2-yl)-N-[(2R)-1,1,1-trifluoropropan-2-yl]pyridine-3-sulfonamide] | < 500 nM | 190 to 194 °C
Cc1ccc2c(C#N)c(-c3ccc(NS(=O)(=O)C4CC4)cn3)n(C3CCC3)c2c1 [compound 297, N-[6-(3-cyano-1-cyclobutyl-6-methyl-1H-indol-2-yl)pyridin-3-yl]cyclopropanesulfonamide] | 500 to 2000 nM | 200 to 205 °C
CCc1cc2c(cc1F)c(C(N)=O)c(-c1ccc(S(=O)(=O)NC3(C(F)(F)F)CC3)cn1)n2-c1ncccn1 [compound 979, 6-ethyl-5-fluoro-1-(pyrimidin-2-yl)-2-(5-{[1-(trifluoromethyl)cyclopropyl]sulfamoyl}pyridin-2-yl)-1H-indole-3-carboxamide] | 2000 to 5000 nM | 240 to 247 °C
C[C@H](NS(=O)(=O)c1ccc(-c2c(C#N)c3ccc(CC(F)F)cc3n2C2CCC2)nc1)C1CC1 [compound 590, 6-[3-cyano-1-cyclobutyl-6-(2,2-difluoroethyl)-1H-indol-2-yl]-N-[(1S)-1-cyclopropylethyl]pyridine-3-sulfonamide] | < 500 nM | 146 to 155 °C
Cc1cc2c(cc1F)c(C#N)c(-c1ccc(S(=O)(=O)N[C@@H](C)C(F)(F)F)cn1)n2-c1ncccc1Cl [compound 971, 6-[1-(3-chloropyridin-2-yl)-3-cyano-5-fluoro-6-methyl-1H-indol-2-yl]-N-[(2S)-1,1,1-trifluoropropan-2-yl]pyridine-3-sulfonamide] | 500 to 2000 nM | 221 to 225 °C
N#Cc1c(-c2ncc(S(=O)(=O)NC(CF)CF)cn2)n(C2CCCC2)c2ccc(C(F)F)cc12 [compound 536, 2-[3-cyano-1-cyclopentyl-5-(difluoromethyl)-1H-indol-2-yl]-N-(1,3-difluoropropan-2-yl)pyrimidine-5-sulfonamide] | < 500 nM | 176 to 177 °C
Cc1cc2c(C#N)c(-c3ccc(S(=O)(=O)N[C@H](C)C(F)(F)F)cn3)n(C3CCC3)c2cc1Cl [compound 510, 6-(6-chloro-3-cyano-1-cyclobutyl-5-methyl-1H-indol-2-yl)-N-[(2R)-1,1,1-trifluoropropan-2-yl]pyridine-3-sulfonamide] | 500 to 2000 nM | 200 to 200.5 °C
C[C@H](NS(=O)(=O)c1cnc(-c2c(C#N)c3cc(C#N)ccc3n2C2CCCC2)nc1)C(F)(F)F [compound 392, 2-(3,5-dicyano-1-cyclopentyl-1H-indol-2-yl)-N-[(2S)-1,1,1-trifluoropropan-2-yl]pyrimidine-5-sulfonamide] | < 500 nM | 250 to 254 °C
C[C@@H](NS(=O)(=O)c1ccc(-c2c(C#N)c3cc(F)c(OC(F)F)cc3n2CC2CC2)nc1)C(F)(F)F [compound 789, 6-[3-cyano-1-(cyclopropylmethyl)-6-(difluoromethoxy)-5-fluoro-1H-indol-2-yl]-N-[(2R)-1,1,1-trifluoropropan-2-yl]pyridine-3-sulfonamide] | < 500 nM | 148 to 153 °C
N#Cc1c(-c2ccc(S(=O)(=O)NC(CF)CF)cn2)n(-c2ccccn2)c2cc(C3CC3)ccc12 [compound 501, 6-[3-cyano-6-cyclopropyl-1-(pyridin-2-yl)-1H-indol-2-yl]-N-(1,3-difluoropropan-2-yl)pyridine-3-sulfonamide] | < 500 nM | 210 to 213 °C
